In patent US7387997B2 (University of Utah, priority 2004, dated 2008):
pIC50, pKi: −log10 of the molar value. Several values for one entry are separate records, joined by “and”; a condition that tells them apart may be missing. Identical values can stand only once. Entries after “also recorded” stand apart in the source; their conditions may differ. Where a SMILES comes first, the peptide text is derived from it. Bridges are numbered along the chain shown (N, C = ends).

Assays:
[1] = target: T1, rat α3β4 nAChR (Rattus norvegicus, UniProt P04757+P12392); test: cell-based; type: cell-based
T1 construct: expressed in transfected cells; host or cells: Xenopus laevis oocytes, cRNA injected
T1 sequence (P04757 26-499 limits assumed): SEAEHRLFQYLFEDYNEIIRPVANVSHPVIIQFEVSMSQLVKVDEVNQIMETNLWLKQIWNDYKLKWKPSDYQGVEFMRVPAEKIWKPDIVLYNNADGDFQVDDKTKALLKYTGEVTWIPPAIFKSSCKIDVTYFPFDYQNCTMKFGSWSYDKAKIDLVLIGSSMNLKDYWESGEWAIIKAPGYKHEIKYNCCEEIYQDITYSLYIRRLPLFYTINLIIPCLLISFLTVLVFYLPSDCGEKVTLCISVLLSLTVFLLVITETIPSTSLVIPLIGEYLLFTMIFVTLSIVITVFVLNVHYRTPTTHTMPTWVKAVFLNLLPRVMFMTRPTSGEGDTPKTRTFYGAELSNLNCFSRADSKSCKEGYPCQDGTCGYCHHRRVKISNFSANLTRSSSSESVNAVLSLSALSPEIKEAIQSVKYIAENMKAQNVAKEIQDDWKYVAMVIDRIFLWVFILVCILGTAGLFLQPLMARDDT
T1 sequence (P12392 21-495 limits assumed): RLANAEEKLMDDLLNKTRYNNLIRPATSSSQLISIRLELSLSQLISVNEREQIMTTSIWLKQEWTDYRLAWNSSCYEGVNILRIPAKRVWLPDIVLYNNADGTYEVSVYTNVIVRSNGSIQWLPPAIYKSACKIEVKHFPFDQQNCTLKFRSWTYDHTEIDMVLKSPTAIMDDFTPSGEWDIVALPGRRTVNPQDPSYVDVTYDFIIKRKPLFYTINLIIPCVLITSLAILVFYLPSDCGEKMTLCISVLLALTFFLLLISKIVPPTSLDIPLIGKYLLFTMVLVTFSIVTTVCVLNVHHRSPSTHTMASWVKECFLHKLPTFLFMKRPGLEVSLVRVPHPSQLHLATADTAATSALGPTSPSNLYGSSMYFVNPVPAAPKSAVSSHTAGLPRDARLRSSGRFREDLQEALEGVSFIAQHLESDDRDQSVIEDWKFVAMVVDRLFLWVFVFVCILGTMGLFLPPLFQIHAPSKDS

[2] = target: T2, α7 nAChR (Rattus norvegicus, UniProt Q05941); test: cell-based; type: cell-based
T2 construct: expressed in transfected cells; host or cells: Xenopus laevis oocytes, cRNA injected
T2 sequence (Q05941 23-502 limits assumed): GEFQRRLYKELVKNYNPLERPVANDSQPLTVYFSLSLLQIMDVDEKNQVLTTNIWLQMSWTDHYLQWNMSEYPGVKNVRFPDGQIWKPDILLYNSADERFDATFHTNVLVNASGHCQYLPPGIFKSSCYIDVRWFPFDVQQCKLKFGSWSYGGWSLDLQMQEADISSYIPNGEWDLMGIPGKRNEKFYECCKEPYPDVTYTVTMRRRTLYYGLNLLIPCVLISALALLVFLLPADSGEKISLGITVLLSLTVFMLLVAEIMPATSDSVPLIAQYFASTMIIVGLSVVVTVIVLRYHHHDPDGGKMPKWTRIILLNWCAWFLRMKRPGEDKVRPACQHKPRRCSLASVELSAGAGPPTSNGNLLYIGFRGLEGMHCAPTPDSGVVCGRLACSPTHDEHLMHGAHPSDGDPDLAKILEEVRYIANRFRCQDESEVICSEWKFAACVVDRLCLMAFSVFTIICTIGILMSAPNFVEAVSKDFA

[3] = target: T3, rat α6β4 nAChR (Rattus norvegicus, UniProt P12392+P43143); type: cell-based
T3 construct: expressed in transfected cells; host or cells: Xenopus laevis oocytes, cRNA injected (50 ng each)
T3 sequence (P43143 31-493): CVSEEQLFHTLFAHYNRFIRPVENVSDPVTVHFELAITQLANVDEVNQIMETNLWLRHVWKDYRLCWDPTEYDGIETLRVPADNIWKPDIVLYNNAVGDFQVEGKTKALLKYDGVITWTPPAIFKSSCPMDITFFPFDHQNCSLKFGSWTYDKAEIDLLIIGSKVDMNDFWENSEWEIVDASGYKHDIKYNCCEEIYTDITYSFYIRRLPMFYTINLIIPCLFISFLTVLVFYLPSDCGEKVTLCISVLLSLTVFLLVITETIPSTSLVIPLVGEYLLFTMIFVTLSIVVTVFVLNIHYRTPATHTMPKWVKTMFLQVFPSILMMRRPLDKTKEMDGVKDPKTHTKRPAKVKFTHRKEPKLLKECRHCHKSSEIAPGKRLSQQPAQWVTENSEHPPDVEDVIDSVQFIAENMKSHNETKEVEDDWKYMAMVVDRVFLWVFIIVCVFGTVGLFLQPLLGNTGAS
T3 sequence (P12392 21-495): as the sequence (P12392 21-495 limits assumed) above

[4] = target: T4, α2β2 nAChR (Rattus norvegicus, UniProt P12389+P12390); test: cell-based; type: cell-based
T4 construct: expressed in transfected cells; host or cells: Xenopus laevis oocytes, cRNA injected
T4 sequence (P12389 28-511 limits assumed): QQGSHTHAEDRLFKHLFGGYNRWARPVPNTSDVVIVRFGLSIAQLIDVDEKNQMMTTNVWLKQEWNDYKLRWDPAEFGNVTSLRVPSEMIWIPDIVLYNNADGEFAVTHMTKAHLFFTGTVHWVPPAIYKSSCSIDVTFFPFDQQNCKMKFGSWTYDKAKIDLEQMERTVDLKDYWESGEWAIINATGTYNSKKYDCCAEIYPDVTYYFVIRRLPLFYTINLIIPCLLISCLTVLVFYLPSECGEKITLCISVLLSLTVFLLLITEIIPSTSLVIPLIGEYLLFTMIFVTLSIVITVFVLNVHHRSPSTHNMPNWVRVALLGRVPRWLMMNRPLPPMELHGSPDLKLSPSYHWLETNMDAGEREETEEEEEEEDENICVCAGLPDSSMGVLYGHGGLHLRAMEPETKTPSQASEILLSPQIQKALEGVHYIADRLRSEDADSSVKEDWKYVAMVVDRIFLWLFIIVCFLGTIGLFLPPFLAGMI
T4 sequence (P12390 25-500 limits assumed): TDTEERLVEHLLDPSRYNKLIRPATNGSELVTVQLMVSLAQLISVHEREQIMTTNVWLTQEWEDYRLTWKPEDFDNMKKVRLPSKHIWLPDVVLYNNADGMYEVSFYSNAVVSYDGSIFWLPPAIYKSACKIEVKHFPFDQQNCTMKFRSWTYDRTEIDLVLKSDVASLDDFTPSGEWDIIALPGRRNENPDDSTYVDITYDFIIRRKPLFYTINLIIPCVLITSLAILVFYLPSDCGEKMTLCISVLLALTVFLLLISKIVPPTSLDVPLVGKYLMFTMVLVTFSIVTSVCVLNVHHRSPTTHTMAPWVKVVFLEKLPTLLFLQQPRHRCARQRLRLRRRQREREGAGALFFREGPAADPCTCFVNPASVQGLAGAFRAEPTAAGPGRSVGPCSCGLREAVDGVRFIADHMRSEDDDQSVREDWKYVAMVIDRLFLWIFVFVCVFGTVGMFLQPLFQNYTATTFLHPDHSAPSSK

[5] = target: Mouse CNS α-MII Site (putative α6β2* nAChRs); type: binding
[6] = target: T5, α4β4 nAChR (Rattus norvegicus, UniProt P09483+P12392); test: cell-based; type: cell-based
T5 construct: expressed in transfected cells; host or cells: Xenopus laevis oocytes, cRNA injected
T5 sequence (P09483 31-630 limits assumed): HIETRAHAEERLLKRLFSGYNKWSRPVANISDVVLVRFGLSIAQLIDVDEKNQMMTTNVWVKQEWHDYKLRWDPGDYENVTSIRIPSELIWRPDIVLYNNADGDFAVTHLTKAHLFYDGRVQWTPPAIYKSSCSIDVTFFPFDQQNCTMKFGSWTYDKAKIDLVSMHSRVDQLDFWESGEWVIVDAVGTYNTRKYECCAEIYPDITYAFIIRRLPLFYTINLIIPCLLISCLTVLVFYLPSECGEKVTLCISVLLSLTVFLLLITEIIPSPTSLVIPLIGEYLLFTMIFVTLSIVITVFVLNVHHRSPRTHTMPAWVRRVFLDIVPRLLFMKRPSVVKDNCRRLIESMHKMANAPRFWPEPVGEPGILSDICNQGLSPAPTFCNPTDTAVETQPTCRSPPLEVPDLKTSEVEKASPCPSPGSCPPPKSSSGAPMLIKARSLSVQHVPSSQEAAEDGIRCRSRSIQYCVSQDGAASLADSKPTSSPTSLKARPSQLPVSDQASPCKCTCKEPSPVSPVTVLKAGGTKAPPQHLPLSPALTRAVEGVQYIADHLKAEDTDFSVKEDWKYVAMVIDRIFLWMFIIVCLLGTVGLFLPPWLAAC
T5 sequence (P12392 21-495 limits assumed): as the sequence (P12392 21-495 limits assumed) above

[7] = target: T6, Rat α3β2 nAChR (Rattus norvegicus, UniProt P04757+P12390); test: cell-based; type: cell-based
T6 construct: expressed in transfected cells; host or cells: Xenopus laevis oocytes, cRNA injected
T6 sequence (P04757 26-499 limits assumed): as the sequence (P04757 26-499 limits assumed) above
T6 sequence (P12390 25-500 limits assumed): as the sequence (P12390 25-500 limits assumed) above

[8] = target: T7, α2β4 nAChR (Rattus norvegicus, UniProt P12389+P12392); test: cell-based; type: cell-based
T7 construct: expressed in transfected cells; host or cells: Xenopus laevis oocytes, cRNA injected
T7 sequence (P12389 28-511 limits assumed): as the sequence (P12389 28-511 limits assumed) above
T7 sequence (P12392 21-495 limits assumed): as the sequence (P12392 21-495 limits assumed) above

[9] = target: T8, α4β2 nAChR (Rattus norvegicus, UniProt P09483+P12390); type: cell-based
T8 construct: expressed in transfected cells; host or cells: Xenopus laevis oocytes, cRNA injected
T8 sequence (P09483 31-630 limits assumed): as the sequence (P09483 31-630 limits assumed) above
T8 sequence (P12390 25-500 limits assumed): as the sequence (P12390 25-500 limits assumed) above

[10] = target: T9, Rat α6/α3β2β3 nAChR (Rattus norvegicus, UniProt P04757+P12390+P43143); test: cell-based; type: cell-based
T9 construct: amino acids 1 to 237 of the rat α6 subunit protein; amino acids 233 to 499 of the rat α3 subunit protein; expressed in transfected cells; host or cells: Xenopus laevis oocytes, cRNA injected (pT7TS/rα6α3 for the chimera)
T9 sequence (P43143 31-237 limits assumed): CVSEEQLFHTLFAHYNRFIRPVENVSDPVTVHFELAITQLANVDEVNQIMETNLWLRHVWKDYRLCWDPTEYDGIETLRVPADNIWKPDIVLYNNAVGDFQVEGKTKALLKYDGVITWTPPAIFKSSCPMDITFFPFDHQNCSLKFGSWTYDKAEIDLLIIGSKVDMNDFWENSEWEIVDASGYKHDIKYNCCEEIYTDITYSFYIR
T9 sequence (P04757 233-499 limits assumed): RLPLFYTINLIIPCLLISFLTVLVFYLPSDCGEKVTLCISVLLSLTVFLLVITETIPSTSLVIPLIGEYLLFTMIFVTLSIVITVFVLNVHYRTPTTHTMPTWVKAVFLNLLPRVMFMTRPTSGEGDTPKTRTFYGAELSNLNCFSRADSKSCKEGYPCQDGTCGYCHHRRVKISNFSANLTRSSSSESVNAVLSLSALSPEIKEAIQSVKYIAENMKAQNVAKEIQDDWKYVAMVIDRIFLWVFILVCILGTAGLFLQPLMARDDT
T9 sequence (P12390 25-500 limits assumed): as the sequence (P12390 25-500 limits assumed) above

[11] = target: T10, α6/α3β4 nAChR (Rattus norvegicus, UniProt P04757+P12392+P43143); test: cell-based
T10 construct: amino acids 1 to 237 of the rat α6 subunit protein; amino acids 233 to 499 of the rat α3 subunit protein; expressed in transfected cells; host or cells: Xenopus laevis oocytes, cRNA injected
T10 sequence (P43143 31-237 limits assumed): as the sequence (P43143 31-237 limits assumed) above
T10 sequence (P04757 233-499 limits assumed): as the sequence (P04757 233-499 limits assumed) above
T10 sequence (P12392 21-495): as the sequence (P12392 21-495 limits assumed) above

[12] = target: T11, α6/α3β2 nAChR (Rattus norvegicus, UniProt P04757+P12390+P43143); test: cell-based
T11 construct: amino acids 1 to 237 of the rat α6 subunit protein; amino acids 233 to 499 of the rat α3 subunit protein; expressed in transfected cells; host or cells: Xenopus laevis oocytes, cRNA injected
T11 sequence (P43143 31-237 limits assumed): as the sequence (P43143 31-237 limits assumed) above
T11 sequence (P04757 233-499 limits assumed): as the sequence (P04757 233-499 limits assumed) above
T11 sequence (P12390 25-500 limits assumed): as the sequence (P12390 25-500 limits assumed) above

CC(C)C[C@@H]1NC(=O)[C@H](C)NC(=O)[C@@H]2CSSC[C@H](NC(=O)CN)C(=O)N[C@@H](CSSC[C@@H](C(N)=O)NC(=O)[C@H](C)NC(=O)[C@H](CC(N)=O)NC(=O)[C@H](CO)NC(=O)[C@H](Cc3c[nH]cn3)NC(=O)[C@H](CCC(=O)O)NC1=O)C(=O)N[C@@H](CO)C(=O)N[C@@H](CC(N)=O)C(=O)N1CCC[C@H]1C(=O)N[C@@H](C(C)C)C(=O)N2 [MII[H9A; L15A]] (H-GCCSNPVCALEHSNAC-NH2; disulfide 2-8, 3-16)
Hill slope (nH), α3β4 [1]: 0.75±0.1 | activity at α3β4 (in words) [1]: low or no activity; also recorded: little or no activity | ACh response, percentage of control, Rα7 [2]: 61.4 ± 2.3 % of control and 100 ± 1.5 % of control | activity at α7 (in words) [2]: low or no activity; also recorded: little or no activity | Hill slope (nH), α6β4 [3]: 0.60±0.09 | ACh response, percentage of control, Rα2β2 [4]: 102 ± 1.4 % of control and 103 ± 1.9 % of control | activity at α2β2 (in words) [4]: low or no activity; also recorded: little or no activity | pKi [5]: 8.48 | ACh response, percentage of control, Rα4β4 [6]: 99.0 ± 4.0 % of control and 100 ± 5.6 % of control | activity at α4β4 (in words) [6]: low or no activity; also recorded: little or no activity | Hill slope, α3β2 [7]: 0.48±0.04 | ACh response, percentage of control, Rα2β4 [8]: 96.7 ± 3.2 % of control and 95.9 ± 2.3 % of control | activity at α2β4 (in words) [8]: low or no activity; also recorded: little or no activity | ACh response, percentage of control, Rα4β2 [9]: 98.5 ± 4.4 % of control and 101 ± 2.5 % of control | activity at α4β2 (in words) [9]: low or no activity; also recorded: little or no activity

CC(C)C[C@@H]1NC(=O)[C@H](Cc2c[nH]cn2)NC(=O)[C@@H]2CSSC[C@H](NC(=O)CN)C(=O)N[C@@H](CSSC[C@@H](C(N)=O)NC(=O)[C@H](CC(C)C)NC(=O)[C@H](CC(N)=O)NC(=O)[C@H](CO)NC(=O)[C@H](Cc3c[nH]cn3)NC(=O)[C@H](C)NC1=O)C(=O)N[C@@H](CO)C(=O)N[C@@H](CC(N)=O)C(=O)N1CCC[C@H]1C(=O)N[C@@H](C(C)C)C(=O)N2 [MII[E11A]] (H-GCCSNPVCHLAHSNLC-NH2; disulfide 2-8, 3-16)
pIC50 [1]: 5.68 | Ratio nAChR subtype IC50/α6/α3β2β3 IC50, α3β4 [1]: 13,100 | pIC50 [10]: 9.80 | Ratio nAChR subtype IC50/α6/α3β2β3 IC50, α6/α3β2β3 [10]: 1.00 | pIC50 [2]: 5.98 | Ratio nAChR subtype IC50/α6/α3β2β3 IC50, α7 [2]: 6,570 | pIC50 [11]: 8.19 | Ratio nAChR subtype IC50/α6/α3β2β3 IC50, α6/α3β4 [11]: 40.3 | pIC50 [4]: < 5.00 | Ratio nAChR subtype IC50/α6/α3β2β3 IC50, α2β2 [4]: >62,500 | pKi [5]: 9.57 | pIC50 [6]: < 5.00 | Ratio nAChR subtype IC50/α6/α3β2β3 IC50, α4β4 [6]: >62,500 | pIC50 [7]: 8.06 | Ratio IC50 α3β2/IC50 α6/α3β2β3 [7]: 54.5 | pIC50 [8]: < 5.00 | Ratio nAChR subtype IC50/α6/α3β2β3 IC50, α2β4 [8]: >62,500 | pIC50 [12]: 9.81 | Ratio nAChR subtype IC50/α6/α3β2β3 IC50, α6/α3β2 [12]: 0.962
